A short description of series [1]: In vivo imaging with laparotomy. The arrangement: species or system Balb/c nude mice. The following applies: dissected after imaging. From the text: The mice were anesthetized beforehand, and the gastrointestinal tract was then exposed by a single incision in the abdomen of the mice.
Series [2] in a line: H&E staining and hepatorenal index analysis. Format: in vivo, Balb/c nude mice. The procedure: 2 hours after gavage, blood (approximately 500 μL) was collected through the ocular fundus venous plexus and stored in an icebox 20 minutes before centrifugation at 3,500 r.p.m. to prevent clotting. Roche Cobas E602 electrochemical light-emitting immunoassay analyzer was used to test and analyze total protein (TP), albumin (ALB), alanine aminotransferase (ALT), aspartate aminotransferase (AST), creatinine (CREA), carbon dioxide (CO2), uric acid (UA), urea (UREA) in serum samples (200 μL).
All tissues were fixed with 4% PFA, dehydrated with an ethanol solution, embedded with paraffin, and cut into […] coronal and low-temperature sections for hematoxylin and eosin (H&E) staining. Paraffin was removed by xylene washing. Then, the sections were incubated with hematoxylin and eosin for 4 min and washed with distilled water. Stained sections were examined by using the Nikon ECLIPSE 80i microscope.

The conditions of series [3]: compared with P3^⋅+.
Method: Animal experiments: male eight-week-old Balb/c nude mice were purchased from Guangzhou Yancheng Biotechnology Co. Ltd. The mice were adaptively housed for one week and fasted for 24 hours before gavage.
Subsequently, the in vivo fluorescence imaging was performed at room temperature by using the small animal imaging instrument Bruker MI SE 721. The imaging was performed every 10 min until 60 min, every 30 min until 120 min, and then every 60 min until 180 min. Two imaging steps were performed sequentially: 590 nm/700 nm, with exposure time being 60 s, and white light exposure time being 0.175 s. […] In the same conditions, quantitative analysis of fluorescence imaging was performed by using the instrument Bruker MI SE 721. The quantitative analysis of fluorescence was performed on the gastric signals in the mice at all the time points above. The mean value of fluorescence at three sites in the gastric region at 0 min was taken as I0, and the mean value of fluorescence at three sites in the gastric region at other time points was taken as I. A semi-quantitative analysis of the change of the gastric signals in the mice was performed by means of the fluorescence ratio (I/I0). In addition, the mice were euthanized at different time points, and the gastrointestinal tracts of the mice were dissected out for white light photography.
The procedure of series [4]: 30 μL of DMSO stock solution (200 mM) of the compound P6 (4-(piperidine-1-methylene)-2,5-dimethyl-3-hydroxymethylene-^1H-pyrrole) was added to 2970 μL of the acidic buffer solution (pH=2.0-3.0).
After being mixed well, tests of the time-dependent ultraviolet-visible absorption spectrum and fluorescence spectrum were performed (2 h).

As for `Cc1cc(CO)c(C)n1-c1ccccc1` [P3, 2,5-dimethyl-3-hydroxymethylene-1-phenyl-^1H-pyrrole], the “fluorescence of visceral organs other than the gastrointestinal tract” value in series [1] is recorded as “without any fluorescence signal”. Also, the “H&E histology of major visceral organs (stomach, liver, spleen, kidney, lung, heart)” value in series [2] (2 hours after gavage of 1.5 mg in 70 μL water, compared with control group) is on record as “no obvious injury or inflammatory lesion”. Moreover, the biocompatibility result in series [2] (generated in situ in the stomach, conclusion) is “good biocompatibility”.
`Cc1[nH]c(C)c(CN2CCCCC2)c1CO` [P6, 4-(piperidine-1-methylene)-2,5-dimethyl-3-hydroxymethylene-^1H-pyrrole]: the gastrointestinal imaging effect result in series [3] is reported as “not as good as that of P3^⋅+”. The “time for conversion into the radical cation” value in series [4] (acidic buffer solution pH=2.0-3.0, atmosphere of air) is no more than 30 min. In series [4] (compared with P3), the conversion efficiency entry is on record as “lower conversion efficiency” and the light emission entry is recorded as “weaker light emission”.

(Values after US20250305953A1, “LIGHT-EMITTING RADICAL CATION PROBE IN SITU GENERATED BY ACID INDUCTION, AND PREPARATION THEREFOR AND APPLICATION THEREOF” (SOUTH CHINA UNIVERSITY OF TECHNOLOGY, priority 2022, published 2025).)
